Assay results taken from patent publication US20140128380A1, “METHODS OF MODULATING THE ACTIVITY OF THE MC1 RECEPTOR AND TREATMENT OF CONDITIONS RELATED TO THIS RECEPTOR” (Mimetica Pty Ltd, priority 2009, published 2014).

target: T1, human MC1R (hMC1R) (Homo sapiens, UniProt Q01726); test: Human MC1R radioligand binding assay (displacement of 125I-labeled NDP-MSH, Perkin Elmer hMC1R membranes); conditions: displacement of [125I]NDP-MSH, compounds tested as trifluoroacetate or hydrochloride salts or free base
T1 construct: purchased Perkin Elmer ES-195-M400UA
Experimental: Assessments of compound binding to human MC1R (hMC1R)) by displacement of an ^125I-labeled NDP-MSH receptor ligand peptide were performed essentially as described in the data sheets produced by Perkin Elmer to accompany their frozen hMC1R membranes (Perkin Elmer catalog number ES-195-M400UA).
[^125I] NDP-MSH: radiolabeled in house and purified by HPLC:
Na ^125I (0.5 mCi, 17.4 Ci/mg) was added to 50 μL sodium phosphate (50 mM, pH 7.4) in an eppendorf tube precoated with IODOGEN. After incubation for 10 mins the phosphate buffer containing the iodine was added to NDP-MSH (10 ul at 1 mg/mL) in a separate eppendorf tube. This was incubated for a further 10 mins. The iodinated NDP-MSH was purified by HPLC on a Zorbax SB 300 column using solvent A: 0.05% TFA and solvent B: 90% acetonitrile 0.045% TFA with a linear gradient, 0-67% B over 60 mins.
Perkin Elmer frozen hMC1 membranes: catalog number ES-195-M400UA, 0.4 mL/vial; 400 microassays/vial, 0.78 mg/mL protein concentration
Vials of frozen membranes were thawed rapidly immediately before use, diluted with binding buffer and vortexed. Resuspended membranes were kept on ice until they were added to the wells of the plate.
Assays were performed in 96 well polypropylene plates. […] This was incubated for 1 hr at 37° C.

T1 sequence (Q01726 whole entry): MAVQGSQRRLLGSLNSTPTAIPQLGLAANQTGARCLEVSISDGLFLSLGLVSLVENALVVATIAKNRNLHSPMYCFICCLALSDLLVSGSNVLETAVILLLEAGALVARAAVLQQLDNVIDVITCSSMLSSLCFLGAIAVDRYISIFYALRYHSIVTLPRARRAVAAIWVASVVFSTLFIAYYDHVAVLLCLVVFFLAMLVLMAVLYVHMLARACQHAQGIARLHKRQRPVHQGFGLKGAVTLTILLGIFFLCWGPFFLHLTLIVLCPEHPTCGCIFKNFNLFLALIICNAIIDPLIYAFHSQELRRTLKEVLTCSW

IC50, < 10 µM:
N=C(N)NCCC[C@H]1N[C@@H](CNC(=O)c2ccc(-c3ccccc3)cc2)CCN(CC2CCCCC2)C1=O [Compound 176, N-(((3R,5R)-1-(cyclohexylmethyl)-3-(3-guanidinopropyl)-2-oxo-1,4-diazepan-5-yl)methyl)biphenyl-4-carboxamide]
NCCC[C@@H]1N[C@H](CNC(=O)c2ccc(Cl)c(Cl)c2)CCN(CC(c2ccccc2)c2ccccc2)C1=O [Compound 123]
CC(C)(C)c1ccc(C(=O)NC[C@@H]2CCN(CC(c3ccccc3)c3ccccc3)C(=O)[C@H](CCCNC(=N)N)N2)cc1 [Compound 114, 4-tert-butyl-N-(((3S,5S)-1-(2,2-diphenylethyl)-3-(3-guanidinopropyl)-2-oxo-1,4-diazepan-5-yl)methyl)benzamide]
CC(C)(NC(=O)/C=C/c1ccc(Cl)cc1)[C@@H]1CCN(CC(c2ccccc2)c2ccccc2)C(=O)[C@H](CCN)N1 [Compound 164, (E)-N-(2-((3S,5S)-3-(2-aminoethyl)-1-(2,2-diphenylethyl)-2-oxo-1,4-diazepan-5-yl)propan-2-yl)-3-(4-chlorophenyl)acrylamide]
O=C(NC[C@@H]1CCN(CC(c2ccccc2)c2ccccc2)C(=O)[C@H](CCCNC2CCCCC2)N1)c1ccc2ccccc2c1 [Compound 124, N-(((3S,5S)-3-(3-(cyclohexylamino)propyl)-1-(2,2-diphenylethyl)-2-oxo-1,4-diazepan-5-yl)methyl)-2-naphthamide]
N=C(N)NCCC[C@@H]1N[C@H](CNC(=O)c2cccc(Oc3ccccc3)c2)CCN(CC(c2ccccc2)c2ccccc2)C1=O [Compound 111, N-(((3S,5S)-1-(2,2-diphenylethyl)-3-(b3-guanidinopropyl)-2-oxo-1,4-diazepan-5-yl)methyl)-3-phenoxybenzamide]
N=C(N)NCCC[C@@H]1N[C@H](CNS(=O)(=O)c2ccc3ccccc3c2)CCN(CC(c2ccccc2)c2ccccc2)C1=O [Compound 103, N-(((3S,5S)-1-(2,2-diphenylethyl)-3-(3-guanidinopropyl)-2-oxo-1,4-diazepan-5-yl)methyl)naphthalene-2-sulfonamide]
CC[C@H](CN1CC[C@H](CNC(=O)c2ccc3cc(Cl)ccc3c2)N[C@H](CCN2CCCCC2)C1=O)c1ccccc1 [Compound 183, 6-chloro-N-(((3R,5R)-2-oxo-1-((S)-2-phenylbutyl)-3-(2-(piperidin-1-yl)ethyl)-1,4-diazepan-5-yl)methyl)-2-naphthamide]
NCCC[C@@H]1N[C@H](CNC(=O)/C=C/c2ccc(F)cc2)CCN(CC(c2ccccc2)c2ccccc2)C1=O [Compound 121, (E)-N-(((3S,5S)-3-(3-aminopropyl)-1-(2,2-diphenylethyl)-2-oxo-1,4-diazepan-5-yl)methyl)-3-(4-fluorophenyl)acrylamide]
N-(((3R,5R)-3-(2-amino-2-methylpropyl)-2-oxo-1-((S)-2-phenylbutyl)-1,4-diazepan-5-yl)methyl)-6-chloro-2-naphthamide [Compound 169]
N=C(N)NCCC[C@@H]1N[C@H](CNC(=O)c2ccc3ccccc3c2)CCN(CCC2CC3CCC2C3)C1=O (stereo partly drawn) [Compound 131, N-(((3S,5S)-1-(2-(bicyclo[2.2.1]heptan-2-yl)ethyl)-3-(3-guanidinopropyl)-2-oxo-1,4-diazepan-5-yl)methyl)-2-naphthamide]
N=C(N)NCCC[C@@H]1N[C@H](CNC(=O)c2ccc3ccccc3c2)CCN(CCC2CCCCC2)C1=O [Compound 130, N-(((3S,5S)-1-(2-cyclohexylethyl)-3-(3-guanidinopropyl)-2-oxo-1,4-diazepan-5-yl)methyl)-2-naphthamide]
CC(=O)N[C@@H](Cc1c[nH]cn1)C(=O)N[C@@H](Cc1ccccc1)[C@@H]1CCN(CCc2c[nH]c3ccccc23)C(=O)[C@H](CCCNC(=N)N)N1 [Compound 118, (S)—N—((S)-1-((3S,5S)-1-(2-(1H-indol-3-yl)ethyl)-3-(3-guanidinopropyl)-2-oxo-1,4-diazepan-5-yl)-2-phenylethyl)-2-acetamido-3-(1H-imidazol-4-yl)propanamide]
CNC(=O)[C@H](Cc1ccc2ccccc2c1)N1CC[C@H](CNC(=O)/C=C/c2ccc(Cl)cc2)N[C@@H](CCCNC(=N)N)C1=O [Compound 175, (E)-3-(4-chlorophenyl)-N-(((3S,5R)-3-(3-guanidinopropyl)-1-((S)-1-(methylamino)-3-(naphthalen-2-yl)-1-oxopropan-2-yl)-2-oxo-1,4-diazepan-5-yl)methyl)acrylamide]
O=C(/C=C/c1ccc(Cl)cc1)NC[C@@H]1CCN(Cc2cc(Cl)cc(Cl)c2)C(=O)[C@H](CCN2CCCCC2)N1 [Compound 145, (E)-3-(4-chlorophenyl)-N-(((3S,5S)-1-(3,5-dichlorobenzyl)-2-oxo-3-(2-(piperidin-1-yl)ethyl)-1,4-diazepan-5-yl)methyl)acrylamide]
CCC(CN1CC[C@@H](CNC(=O)/C=C/c2ccc(Cl)cc2)N[C@@H](CCN)C1=O)c1ccccc1 (stereo partly drawn) [Compound 153, (E)-N-(((3S,5S)-3-(2-aminoethyl)-2-oxo-1-(2-phenylbutyl)-1,4-diazepan-5-yl)methyl)-3-(4-chlorophenyl)acrylamide]
NCC[C@@H]1N[C@H](CNC(=O)c2ccc(Cl)c(Cl)c2)CCN(Cc2cc(Cl)cc(Cl)c2)C1=O [Compound 140, N-(((3S,5S)-3-(2-aminoethyl)-1-(3,5-dichlorobenzyl)-2-oxo-1,4-diazepan-5-yl)methyl)-3,4-dichlorobenzamide]
CNC(=O)[C@H](Cc1ccc2ccccc2c1)N1CC[C@H](CNC(=O)[C@@H](N)Cc2ccc(Cl)cc2)N[C@@H](CCCNC(=N)N)C1=O [Compound 173, (S)-2-amino-3-(4-chlorophenyl)-N-(((3S,5R)-3-(3-guanidinopropyl)-1-((S)-1-(methylamino)-3-(naphthalen-2-yl)-1-oxopropan-2-yl)-2-oxo-1,4-diazepan-5-yl)methyl)propanamide]
O=C(NC[C@@H]1CCN(CC(c2ccccc2)c2ccccc2)C(=O)[C@H](CCN2CCCCC2)N1)c1ccc(Cl)c(Cl)c1 [Compound 137, 3,4-dichloro-N-(((3S,5S)-1-(2,2-diphenylethyl)-2-oxo-3-(2-(piperidin-1-yl)ethyl)-1,4-diazepan-5-yl)methyl)benzamide]
Cc1ccc(/C=C/C(=O)NC[C@@H]2CCN(CC(c3ccccc3)c3ccccc3)C(=O)[C@H](CCCN)N2)cc1 [Compound 120, (E)-N-(((3S,5S)-3-(3-aminopropyl)-1-(2,2-diphenylethyl)-2-oxo-1,4-diazepan-5-yl)methyl)-3-p-tolylacrylamide]
NCCCC[C@H]1N[C@H](CNC(=O)c2ccc(-c3ccccc3)cc2)CCN(CCc2ccccc2)C1=O [Compound 184, N-(((3R,5S)-3-(4-aminobutyl)-2-oxo-1-phenethyl-1,4-diazepan-5-yl)methyl)biphenyl-4-carboxamide]
N=C(N)NCCC[C@@H]1N[C@H](CNC(=O)c2cnc3ccccc3c2)CCN(CC(c2ccccc2)c2ccccc2)C1=O [Compound 109, N-(((3S,5S)-1-(2,2-diphenylethyl)-3-(3-guanidinopropyl)-2-oxo-1,4-diazepan-5-yl)methyl)quinoline-3-carboxamide]
O=C(/C=C/c1ccc(F)cc1)NC[C@@H]1CCN(CC(c2ccccc2)c2ccccc2)C(=O)[C@H](CCCNC2CCCCC2)N1 [Compound 127, (E)-N-(((3S,5S)-3-(3-(cyclohexylamino)propyl)-1-(2,2-diphenylethyl)-2-oxo-1,4-diazepan-5-yl)methyl)-3-(4-fluorophenyl)acrylamide]
N=C(N)NCCC[C@@H]1N[C@H](CNC(=O)c2ccc3ccccc3c2)CCN(CC(Oc2ccccc2)c2ccccc2)C1=O (stereo partly drawn) [Compound 138, N-(((3S,5S)-3-(3-guanidinopropyl)-2-oxo-1-(2-phenoxy-2-phenylethyl)-1,4-diazepan-5-yl)methyl)-2-naphthamide]
CN1[C@H](CNC(=O)c2ccc3cc(Br)ccc3c2)CCN(CC(c2ccccc2)c2ccccc2)C(=O)[C@@H]1CCCN [Compound 105, N-(((3S,5S)-3-(3-aminopropyl)-1-(2,2-diphenylethyl)-4-methyl-2-oxo-1,4-diazepan-5-yl)methyl)-6-bromo-2-naphthamide]
O=C(NC[C@@H]1CCN(CC(c2ccccc2)c2ccccc2)C(=O)[C@H](CCN2CCOCC2)N1)c1ccc2cc(Cl)ccc2c1 [Compound 181, 6-chloro-N-(((3S,5S)-1-(2,2-diphenylethyl)-3-(2-morpholinoethyl)-2-oxo-1,4-diazepan-5-yl)methyl)-2-naphthamide]
N=C(N)NCCC[C@@H]1N[C@H](CNC(=O)c2ccc3ccccc3c2)CCN(CC(c2ccccc2)c2ccccc2)C1=O [Compound 107, N-(((3S,5S)-1-(2,2-diphenylethyl)-3-(3-guanidinopropyl)-2-oxo-1,4-diazepan-5-yl)methyl)-2-naphthamide]
